From US20040138204A1, “Compositions and methods for pain reduction” (priority 2002, published 2004) come the findings set out here.

The test system of test [1] is AMPA, NMDA and kainate receptors, dorsal horn laminae I-III. Nature of the test: Immunohistochemistry and densitometry of dorsal horn glutamate receptor expression after epidural glutamate infusion. The format is in vivo, rat. The procedure:
Immunohistochemical studies show expression of dorsal horn glutamate receptors in painful conditions involving the lower extremity in the rat. A relatively high concentration (2 mmol/L) of glutamate was infused for 72 hours (same infusion time period as in previous experiments) and densitometry was performed at 40× AMPA, NMDA and kainate for receptor expression at dorsal horn laminae I-III bilaterally, at spinal cord levels where the dorsal root ganglion input would enter the spinal cord dorsal horn, to determine whether receptor expression was increased. The microscopist was blinded to the nature of the sample.

The test system of test [2] is rat hind paw withdrawal (nociception). Nature of the test: Von Frey fiber behavioral test after epidural glutamate infusion. Format: in vivo. The settings on record: epidural infusion 2.0-0.0002 mM for 72 hours; most prominent on day 3, also day 1. The procedure: Behavioral experiments have been completed at a wider range of concentrations. Rats are infused with epludial glutamate at concentrations of 2.0, 0.2, 0.02, 0.002 and 0.0002 mM for 72 hours (3 days). Von Frey fiber examinations were performed on left and right hind paws 24 hours before infusion and then 24, 72, and 144 hours after onset of glutamate infusion. The experimenter was blinded as to which infusate was used. Contralateral to ipsilateral differences were analyzed with respect to concentration of glutamate infusion and hours post-procedure. […] The response was most significant at the 0.02 mM concentration but present at 0.002 and 0.2 mM concentrations. […]
Behavioral Tests—The von Frey Fiber mechanical allodynia assay is performed 24 hours preoperatively and 24, 72, and 144 hours postoperatively. […] Starting with 0.6 grams of force and working up to 1, 1.4, 2, 4, 6, 8, 10, 15, and finally 26, each paw's response is recorded. […]
The protocol has the experimenter tap the bottom surface of the paw with one fiber at a time for six seconds each. […] If a response is not recognized, then the next fiber (one that elicited 1.0 grams of force) is applied, and so on in increasing order of force until a paw withdrawal response was recorded. After the initial response is recorded, the experimenter completes the testing procedure by testing the same paw with fibers in descending order of force. […]

Where [3] appears, read: 2 mmol/L glutamate, 72 hours, p<0.01.

Consider `N[C@@H](CCC(=O)O)C(=O)O` [glutamate], for which the “AMPA, NMDA and kainate receptor expression versus saline-infused controls” value in test [1] (2 mmol/L glutamate infused for 72 hours, dorsal horn laminae I-III, two-tailed T test) was “upregulation of expression over saline-infused controls”. Further, in test [1] (setting [3]), the “AMPA receptor expression ipsilateral versus contralateral” value is on record as “upregulation of receptor expression ipsilateral to the side of infusion” and the “NMDA receptor expression ipsilateral versus contralateral” value is “upregulation of receptor expression ipsilateral to the side of infusion”. The “kainate receptor expression ipsilateral versus contralateral” value in test [1] (2 mmol/L glutamate, 72 hours, p<0.05) was “upregulation of receptor expression ipsilateral to the side of infusion”. Further, in test [2], the “von Frey contralateral to ipsilateral difference (hypersensitivity)” value is recorded as “significant hypersensitivity postoperatively”.
